Laboratory results from US8163528B2, “Nucleic acid molecules encoding thymidine kinase fusion proteins” (Darwin Molecular Corporation, priority 1997, dated 2012).

Columns and labels:
BHK tk = assay: Sensitivity of guanylate kinase transfectant pools to ACV in TK expressing clones; assay type: cell-based, hamster; settings: guanylate kinase expression in the presence of wild-type TK
Procedure: pREP8-7, pREP8-7:hgmk and pREP8-7:mgmk are used to transfect BHK tk, TK-transfected clone C3 and 75-transfected clone D4. Histidinol is used to select pools of stable transfectants and to isolate individual clones.
As in Example 8, pools of transfectants are placed in 96 well microtiter dishes at 1000 cells/well. Eight replicates are incubated for three days in the presence of various GCV or ACV concentrations.

KY895 = assay: Secondary screen: colony formation on acyclovir, AZT, TK selection and LB plates; assay type: cell-based, E. coli; parameters: key: ++: the same number of colonies were observed as compared to control plates; +: fewer (<20% those observed with pMCC) and generally smaller (˜50% smaller diameter) colonies were observed as compared to control plates; −: no colonies were observed; settings: for colonies on AZT plates: 1 μg/mL thymidine+0.05 μg/mL AZT; for colonies on AZT plates / colonies on ACV plates / colonies on TK selection plates, 37° C.: 37° C.; for colonies on ACV plates: 1 μg/mL thymidine+1 μg/mL acyclovir; for colonies on LB plates: LB+carb50 plates
Procedure: Mutant cultures were also spread onto duplicate TK selection and LB+carb50 plates. One set of TK selection plates and LB+carb50 plates were incubated at 42° C. All other plates were incubated at 37° C. After 16-24 hours the plates were scored.

[1] = Substrate specificity assay of cell-free translation products, thymidine; assay type: biochemical
Text: (§1) No significant difference in phosphorylation efficiency was observed between pT7:MCC and pT7:HSVTKII when thymidine (1.3-fold), deoxycytidine (1.3-fold), GCV (0.8-fold), ACV (0.95-fold), or AZT (1.1-fold) were used as substrate. Furthermore, Sanderson et al. (J. Mol. Biol. 202:917-919, 1988) reported that the Km for thymidine and ATP and the Vmax of TK purified from E. coli harboring pHETK2 (the parent plasmid of pMCC) and HSV-1-infected cells were indistinguishable. Therefore, the alterations observed in the properties of the mutant TKs can be attributed to the nucleotide substitutions within the target region and that any differences between the vectors (pT7:MCC and pT7:HSVTKII) exerted only minor changes in catalytic properties.
(§2) Three of the mutants (P155A/F161V, F161I and F161C) were assayed in triplicate for the relative levels of phosphorylation using thymidine, deoxycytidine, ACV, GCV, or AZT as substrates. Briefly, forty-eight […] of each tritiated substrate was used in each assay reaction. Translation products were diluted for each nucleoside assay as follows (translation/H2O): 1/100, thymidine; 2/3, deoxycytidine, GCV, and AZT; 4/1, ACV. Each set of assays was incubated for 2 hours at 30° C. and the amount of phosphorylated product determined.

[2] = Substrate specificity assay of cell-free translation products, deoxycytidine; assay type: biochemical
Text: as §1, §2

[3] = Substrate specificity assay of cell-free translation products, ACV; assay type: biochemical
Text: as §1, §2

[4] = Time course analysis of mutant enzymes (thymidine phosphorylation); assay type: biochemical; settings: 30° C., 0-30 minutes; adjusted to protein synthesis
Procedure: For the high-activity mutant enzymes, unlabeled translation products were diluted 1/9 and incubated for 0, 5, 10, 20, or 30 minutes at 30° C.
The low-activity mutants were diluted 1/5, and the rate of phosphorylation as a function of time was also determined.

[5] = assay type: biochemical; settings: for thermal stability after 42° C. preincubation compared to HSVTKII: cell-free translation products
Procedure: To substantiate this observation, cell-free translation products were incubated at 42° C. for increasing times prior to being assayed for enzyme activity. Briefly, cell free translation (“CFT”) products of each high-activity mutant, -RNA, and HSVTKII samples were diluted 1/9 and incubated for 0, 5, 10, and 20 minutes at 42° C. The preincubated samples were then assayed for 5 minutes (P155A/F161V and F1611) or 20 minutes (-RNA, HSVTKII, F161C, and D162E). The percent of activity remaining was determined with the untreated samples set at 100%. […] Because F161C lost greater than 90% of enzyme activity within the first 20 minutes at 42° C., shorter incubation periods at 42° C. were performed […].
Low-activity mutant CFT products were diluted 1/5 and incubated for 0, 20, 40, or 60 minutes at 42° C. The preincubated samples were then assayed in triplicate for the thymidine phosphorylation for 60 minutes. The percent of activity remaining was determined using the untreated (time 0) sample as 100%.

[6] = Kinetic analysis of fusion proteins, GMP; assay type: biochemical; settings: purified protein

Substance | increased sensitivity to ACV relative to TK expression alone (BHK tk) | colonies on AZT plates (KY895) | colonies on ACV plates (KY895) | colonies on TK selection plates, 37° C. (KY895) | colonies on TK selection plates, 42° C. (KY895) | colonies on LB plates (KY895) | phosphorylation of thymidine relative to HSVTKII [1] [fold] | phosphorylation of deoxycytidine over the wild-type enzyme [2] [fold] | ACV phosphorylation over HSVTKII [3] [fold] | TK activity in time course analysis compared to wild-type [4] | thermal stability after 42° C. preincubation compared to HSVTKII [5] | Km [6] [µM] | activity loss after 5 minutes at 42° C. ([5]; cell-free translation product) [%] | enzyme activity lost within the first 20 minutes at 42° C. ([5]; cell-free translation product)
Guanylate kinase: guanylate kinase expressed from pREP8-7 constructs in wild-type TK clone C3 (human or murine not stated) | approximately 2 fold |  |  |  |  |  |  |  |  |  |  |  |  | 
P155A/F161V: HSV-1 TK, proline to alanine mutation at position 155 and phenylalanine to valine at position 161 |  | + (fewer (<20% those observed with pMCC) and generally smaller (˜50% smaller diameter) colonies were observed as compared to control plates) | ++ | ++ | ++ | ++ | 2.6 | 2.8 | 2.4 | statistically higher affinity for thymidine than the wild-type TK |  |  |  | 
F161I/R163H |  | ++ | ++ | ++ | + (fewer (<20% those observed with pMCC) and generally smaller (˜50% smaller diameter) colonies were observed as compared to control plates) | ++ |  |  |  |  | equivalent to HSVTKII |  |  | 
F161I |  | + (fewer (<20% those observed with pMCC) and generally smaller (˜50% smaller diameter) colonies were observed as compared to control plates) | + (fewer (<20% those observed with pMCC) and generally smaller (˜50% smaller diameter) colonies were observed as compared to control plates) | ++ | ++ | ++ | 2.2 | 1.9 |  | statistically higher affinity for thymidine than the wild-type TK |  |  |  | 
gmk: wild-type guanylate kinase (murine gmk used in the fusions) |  |  |  |  |  |  |  |  |  |  |  | 25 |  | 
D162E |  |  |  |  |  |  |  |  |  | no difference in activities when compared to the wild-type TK enzyme activities |  |  |  | 
F161C |  | − | + (fewer (<20% those observed with pMCC) and generally smaller (˜50% smaller diameter) colonies were observed as compared to control plates) | ++ | ++ | ++ |  | 2.8 | 2 | no difference in activities when compared to the wild-type TK enzyme activities |  |  | ~85 | greater than 90%
F161L |  | ++ | ++ | ++ | − | ++ |  |  |  | moderate ability to phosphorylate thymidine, albeit at a much reduced rate from HSVTKII | more thermolabile that HSVTKII |  |  | 
